Assay results from patent US6071919A, “Zwitterionic compositions and methods as biological response modifiers” (priority 1998, dated 2000).

Key:
[1] = tested on: Herpes Zoster; test: Example Nine: patient with painful Herpes Zoster; assay type: in vivo, human; conditions: 1000 mg i.v. daily
Method: A person with painful Herpes Zoster unresponsive to conventional treatment was given 1000 mg intravenously of zwitterionic piperazine daily.

[2] = tested on: cancer tumors; test: Macrophage infiltration of tumors; assay type: in vivo, dogs
Excerpt: The amphoteric zwitterion compounds may be employed as active ingredients with other active ingredients, as well as other components and carriers typically used in pharmaceutical compositions; such as, but not limited to: buffers, stabilizers, dyes, antioxidants, dispersing agents, fillers, surfactants, silicones, bulking agents, pigments, salts, human or animal (natural or synthetic) cells and cellular components, antibiotics, drugs, vitamins, amino acids, proteins, serum and various other compounds and combinations thereof in varying amounts.

[3] = tested on: bone marrow / extramedullary hematopoiesis; test: Example Seven: bone marrow and liver biopsy in healthy beagle dogs; assay type: in vivo; conditions: 18 mg/kg i.v. one week, then 40 mg/kg one week
Method: Five healthy beagle dogs (males and females) were given 18 mg/kg intravenously of zwitterionic piperazine compound (HEPES) for one week. The dose was increased to 40 mg/kg for one week. […] This is also consistent with immune stimulating effect.

[4] = Example Fourteen: patient with ventricular irritability; assay type: in vivo, human; conditions: 3000 mg orally for seven days; baseline 4-6 per minute
Method: A person with ventricular irritability, 4-6 premature ventricular contractions per minute (PVCs), was not controlled with Prancetyl, Quinidine, or beta blockade. They were taking no medicines and was started on 3000 mg zwitterionic piperazine orally for seven days. At the end of seven days, the patient had only occasional PVC (1 every 10 minutes).

Question: Which results are given for O=S(=O)(O)CCN1CCN(CCO)CC1 [HEPES, N-2 Hydroxyethylpiperazine-N'-2 Ethane Sulfonic Acid]?
Answer: pain ([1]; second day): the pain had diminished, so that other analgesia was not required; lesions ([1]; seventh day): the lesions had healed; pain ([1]; seventh day): no pain at all; lesions ([1]; third day): the lesions had crusted and were clearly healing; macrocytic invasion of tumors ([2]; administered to mammals): macrocytic invasion of tumors; macrophage infiltration of cancer tumors ([2]; dogs): macrophage infiltration of cancer tumors in dogs; circulating histiocytes and giant platelets ([3]; all animals): increase in circulating histiocytes and giant platelets; bone marrow biopsy ([3]; all dogs): the bone marrow became hypercellular; liver biopsy (extramedullary hematopoiesis) ([3]; all dogs): presence of megakaryocyte production consistent with induced extramedullary hematopoiesis; premature ventricular contractions (PVC) [4]: 1 every 10 minutes
